Laboratory results as given in the supplement of paper PMC10627819.

Experiments:
S. pneumoniae D39V [1] = assay: fitness (endpoint OD595 vs no drug) (fraction); higher = more growth
Method in brief: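 Fitness expresses the optical density reached at the stationary-phase transition as a fraction of the robust mean of no-drug control wells. It is capped at 1. Measurements were OD595 every 30 min for 14 h at 37 °C after inoculation of 384-well plates at OD595 0.01 (30 µl, or 55 µl for S. pneumoniae), minus the first reading.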

B. subtilis 168 = assay: Bliss interaction score (quartile over a dose matrix) (fitness difference); higher = more antagonism (negative = synergy)
Method in brief: (§1)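 The Bliss score was calculated by subtracting the expected fitness, the product of single-drug values, from the observed fitness. OD595 at entry into stationary phase, over the plate's robust no-drug mean and capped at 1, served as the fitness readout. Single-drug values were inferred from combination data, and scores are summarised by quartiles across technical, biological and donor/recipient replicates.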

S. aureus DSM 20231 = assay: as above
Method in brief: as §1

S. aureus Newman = assay: as above
Method in brief: as §1

S. pneumoniae D39V [2] = assay: as above
Method in brief: as §1
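For Bliss interaction score (quartile over a dose matrix) in this document: first quartile when negative (synergy) and third quartile when positive (antagonism).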

CCC[C@@H]1C[C@@H](C(=O)N[C@@H]([C@H]2O[C@H](SC)[C@H](O)[C@@H](O)[C@H]2O)[C@H](C)Cl)N(C)C1 [Clindamycin] + CO[C@H]1/C=C/O[C@@]2(C)Oc3c(C)c(O)c4c(O)c(c(/C=N/N5CCN(C)CC5)c(O)c4c3C2=O)NC(=O)/C(C)=C\C=C\[C@H](C)[C@H](O)[C@@H](C)[C@@H](O)[C@@H](C)[C@H](OC(C)=O)[C@@H]1C [Rifampicin]
fitness, S. pneumoniae D39V [1]
Settings | first compound 0.0125 µg/mL | first compound 0.015 µg/mL | first compound 0.025 µg/mL | first compound 0.03 µg/mL | first compound 0.05 µg/mL | first compound 0.06 µg/mL
partner 0.025 µg/mL | 0.795 | – | 0.539 | – | 0.273 | –
partner 0.05 µg/mL | 0.811 | – | 0.523 | – | 0.215 | 0.226
partner 0.1 µg/mL | 0.341 | 0.267 | 0.223 | 0.212 | 0.15 | 0.164

fitness, S. pneumoniae D39V [1], one replicate
Settings | first compound 0.015 µg/mL | first compound 0.03 µg/mL | first compound 0.06 µg/mL
partner 0.025 µg/mL | 0.702 | 0.496 | 0.229
partner 0.2 µg/mL | 0 | 0 | 0

Settings | Bliss interaction score
B. subtilis 168 | -0.223
S. aureus DSM 20231 | 0.027
S. aureus Newman | 0.0465
S. pneumoniae D39V [2] | -0.077

CCC[C@@H]1C[C@@H](C(=O)N[C@@H]([C@H]2O[C@H](SC)[C@H](O)[C@@H](O)[C@H]2O)[C@H](C)Cl)N(C)C1 [Clindamycin] + C[C@@H](O)[C@H]1C(=O)N2C(C(=O)O)=C(SCCNC=N)C[C@H]12 [Imipenem]
fitness, S. pneumoniae D39V [1]
Settings | first compound 0.0125 µg/mL | first compound 0.015 µg/mL | first compound 0.025 µg/mL | first compound 0.03 µg/mL | first compound 0.05 µg/mL | first compound 0.06 µg/mL
partner 0.005 µg/mL | 0.753 | – | 0.5 | – | 0.213 | –
partner 0.0065 µg/mL | – | 0.843 | – | 0.628 | – | 0.176
partner 0.01 µg/mL | 0.763 | – | 0.486 | – | 0.202 | –
partner 0.013 µg/mL | – | 0.877 | – | 0.744 | – | 0.46
partner 0.02 µg/mL | 0.758 | – | 0.468 | – | 0.19 | –
partner 0.026 µg/mL | – | 0.824 | – | 0.644 | – | 0.299

Settings | Bliss interaction score
B. subtilis 168 | 0.159
S. aureus DSM 20231 | 0.0276
S. aureus Newman | -0.0198
S. pneumoniae D39V [2] | -0.0804

CCC[C@@H]1C[C@@H](C(=O)N[C@@H]([C@H]2O[C@H](SC)[C@H](O)[C@@H](O)[C@H]2O)[C@H](C)Cl)N(C)C1 [Clindamycin] + Clc1ccc(COC(Cn2ccnc2)c2ccc(Cl)cc2Cl)c(Cl)c1 [Miconazole]
S. pneumoniae D39V [1]
Settings | fitness
first compound 0.0125 µg/mL, partner 1.25 µg/mL | 0.688
first compound 0.0125 µg/mL, partner 2.5 µg/mL | 0.758
first compound 0.0125 µg/mL, partner 5 µg/mL | 0.761
first compound 0.015 µg/mL, partner 1.073 µg/mL | 0.944
first compound 0.015 µg/mL, partner 2.145 µg/mL | 0.945
first compound 0.015 µg/mL, partner 4.29 µg/mL | 0.906
first compound 0.025 µg/mL, partner 1.25 µg/mL | 0.433
first compound 0.025 µg/mL, partner 2.5 µg/mL | 0.485
first compound 0.025 µg/mL, partner 5 µg/mL | 0.444
first compound 0.03 µg/mL, partner 1.073 µg/mL | 0.772
first compound 0.03 µg/mL, partner 2.145 µg/mL | 0.777
first compound 0.03 µg/mL, partner 4.29 µg/mL | 0.665
first compound 0.05 µg/mL, partner 1.25 µg/mL | 0.213
first compound 0.05 µg/mL, partner 2.5 µg/mL | 0.235
first compound 0.05 µg/mL, partner 5 µg/mL | 0.252
first compound 0.06 µg/mL, partner 4.29 µg/mL | 0.33

Settings | Bliss interaction score
B. subtilis 168 | 0.0322
S. aureus DSM 20231 | -0.0342
S. aureus Newman | -0.0596
S. pneumoniae D39V [2] | -0.0991

CCC[C@@H]1C[C@@H](C(=O)N[C@@H]([C@H]2O[C@H](SC)[C@H](O)[C@@H](O)[C@H]2O)[C@H](C)Cl)N(C)C1 [Clindamycin] + O=C1CN(/N=C/c2ccc([N+](=O)[O-])o2)C(=O)N1 [Nitrofurantoin]
fitness, S. pneumoniae D39V [1]
Settings | first compound 0.0125 µg/mL | first compound 0.015 µg/mL | first compound 0.025 µg/mL | first compound 0.03 µg/mL | first compound 0.05 µg/mL | first compound 0.06 µg/mL
partner 1.285 µg/mL | – | 0.848 | – | 0.692 | – | 0.51
partner 2 µg/mL | 0.583 | – | 0.302 | – | 0.0691 | –
partner 2.57 µg/mL | – | 0.886 | – | 0.708 | – | 0.445
partner 4 µg/mL | 0.503 | – | 0.224 | – | 0.0581 | –
partner 8 µg/mL | 0.339 | – | 0.126 | – | 0.0351 | –

S. pneumoniae D39V [1], partner 5.14 µg/mL, one replicate
Settings | fitness
first compound 0.015 µg/mL | 0.809
first compound 0.03 µg/mL | 0.685
first compound 0.06 µg/mL | 0.319

Settings | Bliss interaction score
B. subtilis 168 | -0.113
S. aureus DSM 20231 | -0.0327
S. aureus Newman | -0.127
S. pneumoniae D39V [2] | -0.173

O=C(O[C@@H]1Cc2c(O)cc(O)cc2O[C@@H]1c1cc(O)c(O)c(O)c1)c1cc(O)c(O)c(O)c1 [EGCG] + CO[C@H]1/C=C/O[C@@]2(C)Oc3c(C)c(O)c4c(O)c(c(/C=N/N5CCN(C)CC5)c(O)c4c3C2=O)NC(=O)/C(C)=C\C=C\[C@H](C)[C@H](O)[C@@H](C)[C@@H](O)[C@@H](C)[C@H](OC(C)=O)[C@@H]1C [Rifampicin]
fitness, S. pneumoniae D39V [1]
Settings | first compound 12.5 µg/mL | first compound 25 µg/mL | first compound 50 µg/mL
partner 0.025 µg/mL | 0.923 | 0.925 | ≥ 1
partner 0.05 µg/mL | 0.931 | – | 0.942
partner 0.1 µg/mL | – | – | 0.496

S. pneumoniae D39V [1], partner 0.2 µg/mL, one replicate
Settings | fitness
first compound 12.5 µg/mL | 0
first compound 25 µg/mL | 0
first compound 50 µg/mL | 0

Settings | Bliss interaction score
B. subtilis 168 | 0.0434
S. aureus DSM 20231 | -0.0623
S. aureus Newman | -0.0254
S. pneumoniae D39V [2] | -0.0502

O=C(O[C@@H]1Cc2c(O)cc(O)cc2O[C@@H]1c1cc(O)c(O)c(O)c1)c1cc(O)c(O)c(O)c1 [EGCG] + C[C@@H](O)[C@H]1C(=O)N2C(C(=O)O)=C(SCCNC=N)C[C@H]12 [Imipenem]
fitness, S. pneumoniae D39V [1]
Settings | partner 0.005 µg/mL | partner 0.0065 µg/mL | partner 0.01 µg/mL | partner 0.013 µg/mL | partner 0.02 µg/mL | partner 0.026 µg/mL
first compound 12.5 µg/mL | 0.952 | 0.863 | 0.875 | 0.78 | 0.9 | 0.563
first compound 25 µg/mL | 0.985 | 0.833 | 0.971 | 0.959 | 0.842 | –
first compound 50 µg/mL | 0.912 | 0.896 | 0.939 | 0.799 | ≥ 1 | 0.899

Settings | Bliss interaction score
B. subtilis 168 | 0.185
S. aureus DSM 20231 | -0.0357
S. aureus Newman | 0.0318
S. pneumoniae D39V [2] | 0.0607
